For one experiment, the target named is CA XIV (Homo sapiens, UniProt Q9ULX7). In words: Fluorescence-based thermal shift assay (FTSA).
The target of a further experiment is CA VB (Homo sapiens, UniProt Q9Y2D0). Briefly: Fluorescence-based thermal shift assay (FTSA).
Experiment [1] addresses T1, CA II (Homo sapiens, UniProt P00918). In words: Isothermal titration calorimetry (ITC). For orientation: Isothermal titration calorimetry measures the heat released or taken up as one component is titrated into another.
In experiment [2] the target is T1, CA II. In words: Stopped-flow CO2 hydration activity assay (SFA). To be noted: 25°C, pH 7.5, 20 nM CA II, Morrison equation; read-out: Affinity (Kd) by SFA, CA II. Details: made in house. It counts as biochemical.
Method: (§1) The inhibition of CA enzymatic activity by the compounds was measured by the stopped-flow CO2 hydration enzymatic activity assay (SFA) [20]. […] The IC50 measured by SFA were compared to the affinities obtained by FTSA.
(§2) The CO2 spontaneously hydrates in an aqueous solution and the pH decreases. […] The saturated CO2 solution was prepared by bubbling the CO2 gas in MilliQ water at 25°C for 1 h. Experiments were performed at 25°C using 25 mM Hepes buffer containing 50 mM NaCl, pH 7.5, 0–100 μM inhibitor and 0.4% DMSO. […] The rates of CO2 hydration were determined from the slopes of raw curves of initial absorbance change. To determine the fraction of inhibited enzyme, the spontaneous CO2 hydration rate was used as a zero, while the CA-catalyzed reaction rate in the absence of the compound—as a maximum value. Each experiment consisted of 17 compound concentrations, 16 prepared by serial ligand dilution and a last one without the compound. […] The dissociation constants Kd were determined using the Morrison equation as described by Copeland [21].
In another experiment the target is CA VA (Homo sapiens, UniProt P35218). In words: Fluorescence-based thermal shift assay (FTSA).
CA VA, sequence (P35218 39-305): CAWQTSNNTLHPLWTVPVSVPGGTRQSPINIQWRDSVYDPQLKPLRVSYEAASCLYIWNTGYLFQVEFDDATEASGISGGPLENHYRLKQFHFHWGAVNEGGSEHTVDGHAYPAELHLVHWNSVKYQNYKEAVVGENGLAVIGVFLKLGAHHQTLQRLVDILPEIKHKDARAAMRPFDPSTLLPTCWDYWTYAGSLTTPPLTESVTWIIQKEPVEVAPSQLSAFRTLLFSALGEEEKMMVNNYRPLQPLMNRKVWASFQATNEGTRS
The target in experiment [3] is T1, CA II. In words: Fluorescence-based thermal shift assay (FTSA). The note with it: for Binding to CA II in words: FTSA.
Method: (§3) This assay quantifies protein melting temperatures (Tm) at various concentrations of the added compound. Protein unfolding is monitored by detecting the fluorescence of the solvatochromic dye 8-anilino-1-naphtalensulfonate (ANS), whose fluorescence increases upon protein unfolding [15–17]. Dependence of the protein Tm on ligand concentration was used to determine the dissociation constant Kd. In this study, FTSA samples contained 5–20 μM protein, 50 μM ANS, 0–300 μM compound in 50 mM sodium phosphate or 25 mM Hepes buffer containing 50 mM NaCl, pH 7.5, and 2% (v/v) DMSO. Experiments were performed in Corbett Rotor-Gene 6000 instrument. […] The heating rate of 1°/min was applied.
(§4) The experiments were repeated at least twice, and averages are listed.
Experiment [4] concerns the target CA XIII (Homo sapiens, UniProt Q8N1Q1). Briefly: Fluorescence-based thermal shift assay (FTSA).
Method: as §3, §4
Experiment [5] concerns the target T2, CA III (Homo sapiens, UniProt P07451). Briefly: Fluorescence-based thermal shift assay (FTSA).
Method: as §3, §4
For another experiment, the target named is CA XII (Homo sapiens, UniProt O43570). In words: Fluorescence-based thermal shift assay (FTSA).
CA XII, sequence (O43570 25-354): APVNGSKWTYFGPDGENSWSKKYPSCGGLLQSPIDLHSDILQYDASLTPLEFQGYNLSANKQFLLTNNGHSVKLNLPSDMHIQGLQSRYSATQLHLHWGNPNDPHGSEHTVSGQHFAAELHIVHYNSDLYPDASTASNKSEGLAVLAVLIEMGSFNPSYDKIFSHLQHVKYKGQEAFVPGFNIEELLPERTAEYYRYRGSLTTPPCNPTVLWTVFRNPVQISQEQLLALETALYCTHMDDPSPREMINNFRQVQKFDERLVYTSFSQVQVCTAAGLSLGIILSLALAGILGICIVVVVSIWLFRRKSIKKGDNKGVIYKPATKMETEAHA
Experiment [6] deals with T3, CA IV (Homo sapiens, UniProt P22748). Briefly: Fluorescence-based thermal shift assay (FTSA).
T3 sequence (P22748 19-312): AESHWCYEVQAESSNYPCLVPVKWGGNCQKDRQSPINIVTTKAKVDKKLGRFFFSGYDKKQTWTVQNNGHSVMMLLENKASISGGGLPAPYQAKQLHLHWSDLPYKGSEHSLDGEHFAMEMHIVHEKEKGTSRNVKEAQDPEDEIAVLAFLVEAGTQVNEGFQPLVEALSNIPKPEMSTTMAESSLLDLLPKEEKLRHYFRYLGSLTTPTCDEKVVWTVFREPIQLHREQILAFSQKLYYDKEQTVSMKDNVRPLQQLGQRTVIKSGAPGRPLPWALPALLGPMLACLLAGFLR
Method: as §3, §4
In another experiment the target is CA. Further details: method as in doi:10.1016/S0223-5234(97)89083-6. To be noted: CA isoform not identified; cited from earlier work.
Another experiment addresses CA IX (Homo sapiens, UniProt Q16790). Briefly: Fluorescence-based thermal shift assay (FTSA).
For experiment [7], the target named is T3, CA IV. In words: Stopped-flow CO2 hydration activity assay (SFA). To be noted: 25°C, pH 7.5, 25 nM CA IV, Morrison equation; read-out: Affinity (Kd) by SFA, CA IV. Type of experiment: biochemical. Details: made in house.
Method: as §1, §2
For experiment [8], the target named is T1, CA II. Details: made in house. The note with it: literature value; read-out: Literature Ki or Kd, CA II; cited from earlier work.
Another experiment deals with CA VII (Homo sapiens, UniProt P43166). In words: Fluorescence-based thermal shift assay (FTSA).
CA VII, sequence (P43166 whole entry): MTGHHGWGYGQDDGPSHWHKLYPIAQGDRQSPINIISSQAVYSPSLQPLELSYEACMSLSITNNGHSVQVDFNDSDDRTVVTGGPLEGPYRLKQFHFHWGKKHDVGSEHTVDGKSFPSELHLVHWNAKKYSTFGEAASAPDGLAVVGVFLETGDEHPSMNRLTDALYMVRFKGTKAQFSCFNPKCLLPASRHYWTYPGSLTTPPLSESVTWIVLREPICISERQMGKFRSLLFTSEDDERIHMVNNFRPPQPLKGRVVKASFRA
The target in a further experiment is CA VI (Homo sapiens, UniProt P23280). Briefly: Fluorescence-based thermal shift assay (FTSA).
CA VI, sequence (P23280 18-308): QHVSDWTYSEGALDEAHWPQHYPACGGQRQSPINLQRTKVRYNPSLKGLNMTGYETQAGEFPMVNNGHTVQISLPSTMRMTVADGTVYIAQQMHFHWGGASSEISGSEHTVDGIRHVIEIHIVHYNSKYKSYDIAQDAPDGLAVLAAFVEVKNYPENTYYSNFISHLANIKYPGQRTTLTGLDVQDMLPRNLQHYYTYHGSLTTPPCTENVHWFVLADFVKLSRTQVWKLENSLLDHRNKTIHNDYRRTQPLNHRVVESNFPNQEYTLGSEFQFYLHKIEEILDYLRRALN
The next experiment has as its system human CA isoforms. In words: FTSA, summary over several CA isoforms. Type of experiment: binding.
Another experiment concerns the target CA I (Homo sapiens, UniProt P00915). In words: Fluorescence-based thermal shift assay (FTSA).
Experiment [9] has as its target CA XIII. The note with it: murine protein, literature value; read-out: Literature Ki or Kd, CA XIII; cited from earlier work.
In experiment [10] the target is T2, CA III. Further details: made in house. The note with it: literature value; read-out: Literature Ki or Kd, CA III; cited from earlier work.
In experiment [11] the test system is TSC (thiazide sensitive co-transporter). Further details: method as in PMID 10894798. The note with it: in the presence of 2 mM Cl-; cited from earlier work.

Read-outs that look alike come from different tables or passages of the source. Bounds are passed on as bounds.

CA XIV, sequence (Q9ULX7 16-337): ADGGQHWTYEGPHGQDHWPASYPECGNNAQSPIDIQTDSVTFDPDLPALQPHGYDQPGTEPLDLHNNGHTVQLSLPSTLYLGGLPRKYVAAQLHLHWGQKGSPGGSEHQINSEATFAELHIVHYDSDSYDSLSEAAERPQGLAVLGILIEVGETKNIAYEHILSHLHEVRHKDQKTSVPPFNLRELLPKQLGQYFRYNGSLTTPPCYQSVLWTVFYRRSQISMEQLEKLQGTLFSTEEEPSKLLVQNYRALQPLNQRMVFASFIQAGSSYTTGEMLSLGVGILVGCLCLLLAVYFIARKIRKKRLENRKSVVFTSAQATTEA
CA XIII (Homo sapiens, UniProt Q8N1Q1), sequence (Q8N1Q1 whole entry): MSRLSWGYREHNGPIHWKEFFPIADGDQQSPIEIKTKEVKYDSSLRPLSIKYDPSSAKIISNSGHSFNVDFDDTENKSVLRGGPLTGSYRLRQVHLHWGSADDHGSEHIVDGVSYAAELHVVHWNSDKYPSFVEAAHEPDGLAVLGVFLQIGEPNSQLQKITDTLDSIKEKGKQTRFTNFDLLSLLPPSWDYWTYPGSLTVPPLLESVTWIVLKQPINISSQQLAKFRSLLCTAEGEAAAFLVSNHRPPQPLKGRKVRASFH
T2 sequence (P07451 whole entry): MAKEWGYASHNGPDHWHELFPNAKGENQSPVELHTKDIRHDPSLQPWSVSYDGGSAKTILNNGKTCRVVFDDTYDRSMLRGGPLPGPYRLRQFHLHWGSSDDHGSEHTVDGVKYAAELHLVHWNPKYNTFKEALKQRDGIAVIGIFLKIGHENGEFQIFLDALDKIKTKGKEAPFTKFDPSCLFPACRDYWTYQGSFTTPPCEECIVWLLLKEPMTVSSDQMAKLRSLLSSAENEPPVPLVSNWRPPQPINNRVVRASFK
CA VB, sequence (Q9Y2D0 34-317): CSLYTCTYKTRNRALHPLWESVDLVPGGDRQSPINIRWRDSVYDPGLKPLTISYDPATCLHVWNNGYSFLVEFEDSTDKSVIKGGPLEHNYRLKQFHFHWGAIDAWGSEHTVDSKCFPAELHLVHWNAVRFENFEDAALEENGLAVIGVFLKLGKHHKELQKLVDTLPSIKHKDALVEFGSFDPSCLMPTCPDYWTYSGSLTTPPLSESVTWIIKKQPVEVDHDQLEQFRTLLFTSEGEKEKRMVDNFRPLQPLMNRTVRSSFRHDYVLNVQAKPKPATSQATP
CA I, sequence (P00915 whole entry): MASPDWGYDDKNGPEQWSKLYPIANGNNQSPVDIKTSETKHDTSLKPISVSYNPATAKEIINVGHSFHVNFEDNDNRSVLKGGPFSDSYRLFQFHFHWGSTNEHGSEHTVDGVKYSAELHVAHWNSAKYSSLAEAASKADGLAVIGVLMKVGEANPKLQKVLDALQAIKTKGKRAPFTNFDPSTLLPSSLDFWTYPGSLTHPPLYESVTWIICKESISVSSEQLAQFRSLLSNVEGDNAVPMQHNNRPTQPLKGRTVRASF
Method for CA IX: as §3, §4
Method for CA VA: as §3, §4
Method for CA VB: as §3, §4
Method for CA VII: as §3, §4
Method for CA XIV: as §3, §4
Method for human CA isoforms: as §3, §4

By Kd is commonly meant a measure of binding affinity in units of concentration. The Ki is the equilibrium dissociation constant of an inhibitor or competing ligand from its target. Consider `NS(=O)(=O)c1cc2c(cc1Cl)N=CNS2(=O)=O` [Compound 3, chlorothiazide], for which the equilibrium dissociation constant (Kd) at CA XIV was found to be 250 nM; on CA VB, 48 nM; on CA II [1], 250 nM; at CA II [2], 310 nM; on CA VA it was 830 nM; at CA II [3], 370 nM. Moreover, the Kd was 39 nM at CA XIII [4]; 15000 nM on CA III [5]; 180 nM at CA XII; 310 nM at CA IV [6]; 130 nM at CA IX; 300 nM on CA IV [7]. Also, the Kd at CA II [8] is 372 nM; on CA VII it was 70 nM; on CA VI, 620 nM. Further, on CA, the inhibition constant (Ki) is 460 nM.
For `NS(=O)(=O)c1cc2c(cc1Cl)N=C(CSCc1ccccc1)NS2(=O)=O` [Compound 8, benzthiazide], the Kd at CA XIV was found to be 36 nM; at CA VB it was 6.6 nM; at CA VA, 90 nM; at CA II [3], 6.4 nM; at CA XIII [4] it was 0.64 nM; at CA III [5] it was 4500 nM. Also, the Kd at CA XII was 18 nM; at CA IV [6] it was 43 nM; on CA IX it was 26 nM; at CA II [8] it was 16.7 nM; on CA I, 4300 nM; at CA VII, 15 nM. For the same molecule, at CA VI, the Kd came out at 500 nM. For the same molecule, the “Binding to CA II in words” value on CA II [3] is reported as “potent ones”. Also, at CA, the Ki was 16 nM. The “Increase in affinity of 8 relative to 4” value in the experiment with human CA isoforms (CA II and CA XIII, Kd ratio) is “up to 1000 fold”.
On to `NS(=O)(=O)c1cc2c(cc1C(F)(F)F)NCNS2(=O)=O` [Compound 10, hydroflumethiazide], for which the Kd at CA XIV was 3600 nM; at CA VB, 910 nM; at CA VA it was 40000 nM; at CA II [3], 17000 nM; at CA XIII [4], 470 nM; at CA III [5] it was above 200000 nM. The Kd on CA XII is 31000 nM; on CA IV [6], 24000 nM; on CA IX, 1600 nM; at CA I it was 50000 nM; on CA VII, 17000 nM; on CA VI, 29000 nM. The “Binding to CA II in words” value on CA II [3] is listed as “weak binders”. The Ki was 15400 nM at CA XIII [9] and 870000 nM on CA III [10].
As usually defined, the IC50 is the concentration that inhibits the measured activity by half. As for `NS(=O)(=O)c1cc2c(cc1Cl)NCNS2(=O)=O` [Compound 4, hydrochlorothiazide], the Kd is 620 nM at CA XIV; 200 nM on CA VB; 2000 nM at CA VA; 530 nM on CA XIII [4]; 200000 nM on CA III [5]; 570 nM at CA XII. The Kd was 1600 nM on CA IV [6]; 350 nM on CA IX; around 1000 nM on human CA isoforms (FTSA, most CA isoforms, read-out: Kd for most CA isoforms); 870 nM at CA VII; 830 nM on CA VI. The Ki on CA is 2350 nM; at CA XIII [9], 3880 nM. Also, the IC50 in experiment [11] is 7000 nM.

Source of the values: PMC8224972, “Thiazide and other Cl-benzenesulfonamide-bearing clinical drug affinities for human carbonic anhydrases” (PLoS ONE, 2021).
